Source: patent publication US20260083761A1, “PHARMACEUTICAL COMPOSITION FOR TREATING BRAIN DISEASE, NEURONAL MIGRATION PROMOTER, AND USE THEREOF” (PUBLIC UNIVERSITY CORPORATION NAGOYA CITY UNIVERSITY, priority 2022, published 2026)

Key:
[1] = test system: V-SVZ-derived new neurons co-cultured with BV2 cells; assay: Experiment 10: co-culture of V-SVZ-derived new neurons with LPS-stimulated BV2 cells; PSA signal and time-lapse imaging; assay type: cell-based, mouse; conditions: inhibitor final concentration 1 mM, vs PBS (LPS+) and control (LPS−)
[2] = test system: V-SVZ-derived neurons; assay: Experiment 12: Zanamivir in Nestin-CreERT2;NSE-DTA mice with new neurons removed; FFT and double-positive cells; assay type: in vivo, mouse; conditions: Nestin-CreERT2;NSE-DTA group, unlike NSE-DTA group; Zanamivir 50 mg/kg i.p. for 14 days from day 7 after injury; FFT 14 days after end of administration
[3] = test system: new neurons migrating to the brain injury site; assay: Experiment 13: Zanamivir in common marmosets with brain injury; PSA-NCAM and Dcx immunostaining; assay type: in vivo, common marmoset (Callithrix jacchus); conditions: common marmoset, 50 mg/kg i.p. for 21 days from day 7 after injury, fixed 28 days after injury
[4] = target: T1, Neu3 (Homo sapiens, UniProt Q9UQ49); conditions: human neuraminidases; reported; cited from earlier work
T1 sequence (Q9UQ49 1-461 isoform Q9UQ49-2): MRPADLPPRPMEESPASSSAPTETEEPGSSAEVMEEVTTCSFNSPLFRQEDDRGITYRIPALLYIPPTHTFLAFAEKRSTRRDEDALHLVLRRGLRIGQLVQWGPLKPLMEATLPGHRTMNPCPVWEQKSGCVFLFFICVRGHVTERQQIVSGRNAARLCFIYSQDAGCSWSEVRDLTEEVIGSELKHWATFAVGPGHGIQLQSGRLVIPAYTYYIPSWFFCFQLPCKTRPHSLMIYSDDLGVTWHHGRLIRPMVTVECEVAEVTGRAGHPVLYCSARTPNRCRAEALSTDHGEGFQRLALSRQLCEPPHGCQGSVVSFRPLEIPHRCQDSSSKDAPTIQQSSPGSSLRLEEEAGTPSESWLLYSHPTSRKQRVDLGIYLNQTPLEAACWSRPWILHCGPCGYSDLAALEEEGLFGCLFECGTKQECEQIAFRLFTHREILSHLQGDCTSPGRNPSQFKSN

[5] = target: T2, Neu4 (Homo sapiens, UniProt Q8WWR8); conditions: human neuraminidases; reported; cited from earlier work
T2 sequence (Q8WWR8 1-496 isoform Q8WWR8-2): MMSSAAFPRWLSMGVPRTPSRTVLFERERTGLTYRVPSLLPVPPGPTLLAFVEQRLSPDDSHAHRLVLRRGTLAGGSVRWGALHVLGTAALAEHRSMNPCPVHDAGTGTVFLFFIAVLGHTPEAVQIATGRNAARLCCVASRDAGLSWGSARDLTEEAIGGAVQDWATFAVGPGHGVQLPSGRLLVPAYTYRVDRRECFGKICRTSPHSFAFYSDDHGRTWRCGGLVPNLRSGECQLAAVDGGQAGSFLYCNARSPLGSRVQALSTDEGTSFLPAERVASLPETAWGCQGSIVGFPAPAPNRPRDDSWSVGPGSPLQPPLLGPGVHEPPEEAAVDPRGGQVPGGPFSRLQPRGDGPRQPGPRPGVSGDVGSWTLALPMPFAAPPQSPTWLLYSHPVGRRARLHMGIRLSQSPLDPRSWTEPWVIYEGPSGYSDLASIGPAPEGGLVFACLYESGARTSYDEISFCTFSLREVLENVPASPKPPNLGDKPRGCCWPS

SMILES | PSA signal intensity [1] | left-side slipping-off rate in the FFT [2] | localization of new neurons (distance of Dcx-positive cells from the injury site) ([3]; vs control) | PSA signal intensity of new neurons localized in the striatum on the injury side ([3]; vs non-administration control) | inhibitory effect on human Neu3 [4] | inhibitory effect on human Neu4 [5]
CC(=O)N[C@H]1[C@H]([C@H](O)[C@H](O)CO)OC(C(=O)O)=C[C@@H]1O [DANA, 2,3-dehydro-2-deoxy-N-acetylneuraminic acid] | maintained |  |  |  |  | 
CC(=O)N[C@H]1[C@H]([C@H](O)[C@H](O)CO)OC(C(=O)O)=C[C@@H]1N=C(N)N [Zanamivir] | maintained | no improvement | localized closer to the injury site | maintain | inhibitory effect has been reported | inhibitory effect has been reported
